Reference: PMC5656322, “BAK1 is involved in AtRALF1-induced inhibition of root cell expansion” (PLoS Genetics, 2017)
Where no end group is shown, it is not given here.

Key:
[1] = test system: extracellular domain of BAK1 (BAK1-ECD); experiment: Yeast two-hybrid with BAK1-ECD; type: binding, Arabidopsis thaliana; conditions: yeast AH109, medium lacking Leu, Trp, His
Excerpt: Fig 6 AtRALF1 interacts physically with BAK1 protein. (A) The active AtRALF1 peptide interacts with the extracellular domain (ECD) of BAK1 (BAK1-ECD) in yeast. The AtRALF1 protein fused to the GAL4 DNA-binding domain (AtRALF1-pGBKT7) was used as bait to test its interaction with the extracellular domain of the proteins fused to the GAL4 activation domain (pGADT7): BAK1 (BAK1-ECD), BAK7 (BAK7-ECD), BRI1 (BRI1-ECD) and FLS2 (FLS2-ECD). (B) Blueprint showing the truncated proteins from the extracellular domain of BAK1 tested in the two-hybrid assay. The extracellular domain of BAK1 comprises leucine zippers (LZ), 5 leucine rich-regions (LRRs) and a proline-rich region (pro-rich). (C) AtRALF1-pGBKT7 was used as bait to test its interaction with truncated proteins fused to the GAL4 activation domain (pGADT7). […] HA-BAK1-ECD was detected with an anti-HA antibody. AtRALF1 was detected with an anti-RALF antibody. […] BAK1-GFP was detected with an anti-GFP antibody. […]
The coding regions of the mature peptides AtRALF1 and AtRALF34 were amplified from Arabidopsis genomic DNA and fused to the GAL4 DNA-binding domain and the MYC epitope tag using the NdeI/BamHI sites in the pGBKT7 (Clontech) vector. […] The proteins fused to the HA and MYC epitope tags were detected by protein blotting. […]

[2] = test system: AtPRP3, AtHRGP2, CPD and DWF4 genes; conditions: cited from earlier work
Excerpt: AtRALF1-overexpressing plants are less sensitive to exogenous brassinosteroids (BRs). […] AtRALF1 also induces two cytochrome P450 monooxygenase genes related to the BR biosynthetic pathway: Constitutive Photomorphism and Dwarfism (CPD) and DWARF4 (DWF4). We exposed the bak1 mutants to the same concentration of AtRALF1 and evaluated the capacity to induce the AtPRP3, AtHRGP2, CPD and DWF4 genes. None of the AtRALF1-inducible genes were ...

BAK1 gene = BAK1 gene expression in roots (semi-quantitative RT-PCR and qRT-PCR); type: in vivo, Arabidopsis thaliana; conditions: 1 μM, 1 h, Arabidopsis seedlings
Procedure: Arabidopsis plants were grown for 10 days in vertical plates and then treated in liquid medium containing 1 μM AtRALF1 for 1 h at room temperature. Control plants were incubated under identical conditions in a peptide-free medium. The total RNA was isolated from the roots of Arabidopsis plants using TRIzol reagent according to the manufacturer’s instructions (Life Technologies). The cDNA was synthesized using the ImProm-II Reverse Transcription System (Promega) and 1 μg of RNA. An aliquot of cDNA (1.5 μl) was used as the template in the PCR reaction, which was performed for 29 cycles, unless indicated otherwise, using gene-specific primers (S1 Table). The glyceraldehyde 3-phosphate dehydrogenase (GAPDH) gene was used as an internal control. All experiments were repeated at least three times with independent biological replicates. The data shown are from one representative experiment.
The qRT-PCR analysis was performed using 10-fold-diluted cDNA, Maxima SYBR Green Rox/qPCR Master Mix (Thermo Scientific) and a StepOne Real-Time PCR System (Applied Biosystems). The glyceraldehyde 3-phosphate dehydrogenase (GAPDH) gene was used as an internal control. […] The threshold cycle (CT) was determined by the instrument, and the ΔΔCT method was used to calculate the fold change in each gene. […] Three replicates were analyzed for each biological sample, and two biological samples were analyzed. […]

Question: For “AtRALF1: root-specific RALF isoform in Arabidopsis; recombinant peptide hormone produced in E. coli (ATTKYISYQSLKRNSVPCSRRGASYYNCQNGAQANPYSRGCSKIARCRS; ends and bridges not checked; cysteine pairing not given here)”, which “interaction with BAK1-ECD (Y2H complementation)” value [1] is on record?
Answer: able to complement only the BAK1-ECD construct

Question: What about the “induction of AtPRP3 and AtHRGP2 genes” value ([2]; Arabidopsis seedling roots, ref [9]) of the same substance?
Answer: induces, in a dose-dependent manner

Question: And the “induction of CPD and DWF4 genes” value ([2]; ref [9])?
Answer: induces

Question: What about the AtEXPA5 expression ([2]; roots of treated seedlings, ref [16]–[18]) of the same substance?
Answer: repressed in the roots of AtRALF1-treated seedlings

Question: And the “BAK1 gene expression in roots” value (BAK1 gene)?
Answer: induced BAK1 gene expression in the roots up to levels found in untreated p35S:AtRALF1 roots
